These results are taken from PMC6368337, “GluClR-mediated inhibitory postsynaptic currents reveal targets for ivermectin and potential mechanisms of ivermectin resistance” (PLoS Pathogens, 2019).

For orientation: EC50 means the concentration that produces a half-maximal response.

One assay concerns the target αβ (1:50) GluClRs (Haemonchus contortus, UniProt O46124+P91730). In words: Two-electrode voltage clamp in oocytes, αβ (1:50) GluClRs. The format is cell-based, H. contortus. How it is done:
(§1) cDNAs encoding the α (avr-14b) (pcDNA 3.1+) or β (pUNIV) GluClR subunits of H. contortus were nuclear injected into oocytes (NASCO, WI USA) or transfected into HEK293AD cells (CellBank Australia) using a calcium phosphate-DNA co-precipitate method. Synapse formation between neurons and HEK293 cells was promoted by co-transfecting neuroligin 2A or 1B and the cDNA encoding CD4 surface antigen was also added to the transfection mixture so as to identify transfected cells. The oocytes and HEK cells were used for experiments 2–3 days after the introduction of the cDNAs. All experiments were done at room temperature (22 ± 1°C).
Xenopus laevis oocytes were harvested by surgical incision. The oocytes were then defolliculated with 1.5 mg/ml collagenase for 2 hours. Free oocytes were rinsed with calcium-free OR-2 solution containing (in mM) 82.5 NaCl, 2 KCl, 1 MgCl2, 5 HEPES, pH 7.4 and mature stage V or VI oocytes were isolated for experiments. The DNAs coding for α and β subunits were nuclear injected into the oocytes using a Nanoliter 2000 microinjector (WPI Inc) at a ratio of (α:β), 1:0, 0:1, 1:1 and 1:50. The total amount of injected DNA in all combinations was 400 ng ml^−1, including the 1:50 (α:β) combination (8 ng of DNA encoding the α and 392 ng of DNA encoding β subunits). Injected oocytes were incubated in ND96 storage solution (in mM) 96 NaCl, 2 KCl, 1 MgCl2.6H2O, 1.8 CaCl2, 5 HEPES, 50 μg ml^−1 gentamicin, 2.5 sodium pyruvate, 0.5 theophylline, pH 7.4 at 16°C for 2–3 days before experiment.
For the two-electrode voltage clamp recordings, each oocyte was secured in a cell bath that was continually perfused with ND96 recording solution (ND96 storage solution without pyruvate, theophylline and gentamicin). […] The two microelectrodes contained 3 M KCl and had resistances of 0.2–2 MΩ. Recordings were done using Clampex 10.2 software (Molecular Devices) at a clamped voltage of −40 mV. Currents were low-pass filtered at 200 Hz, sampled at 2 kHz using a Gene Clamp 500B amplifier and digitised by a Digidata 1440A interface. The IVM (IVM B1a) concentration-response experiments were standardised by using an application protocol that consisted of applying increasing concentrations of IVM for, respectively, 3 min, 3 min, 3 min, 2 min, 1 min, 1 min and 0.5 min.
Group data were analysed in SigmaPlot 13.0 using one-way ANOVAs, where p < 0.05 was taken as the significance threshold and expressed as mean ± SEM. Tests for normally distributed data are built into the SigmaPlot software. Confocal images were captured and analysed with Zen 2012 SP2 (Zeiss) software. Oocyte concentration-response data were fit to a Hill equation to obtain an EC50 and Hill co-efficient for each oocyte recording. These parameters were then averaged across multiple oocyte experiments of the same type. Single channel recordings were analysed in QuB software. […] The selected critical times eliminated periods of receptor desensitisation while retaining singe receptor active periods. Mean active period duration and intra-activation open probability was estimated from each patch. Group means were obtained by averaging across multiple patches for each recording condition.
For orientation: In two-electrode clamp one electrode senses voltage and the other passes current.

The next assay addresses β GluClRs (Haemonchus contortus, UniProt P91730). The experiment in a line: Two-electrode voltage clamp in oocytes, β GluClRs. The format is cell-based, H. contortus. The note with it: EC50, oocytes, −40 mV. How it is done: as §1
Xenopus laevis oocytes were harvested by surgical incision. The oocytes were then defolliculated with 1.5 mg/ml collagenase for 2 hours. Free oocytes were rinsed with calcium-free OR-2 solution containing (in mM) 82.5 NaCl, 2 KCl, 1 MgCl2, 5 HEPES, pH 7.4 and mature stage V or VI oocytes were isolated for experiments. The DNAs coding for α and β subunits were nuclear injected into the oocytes using a Nanoliter 2000 microinjector (WPI Inc) at a ratio of (α:β), 1:0, 0:1, 1:1 and 1:50. […]
Group data were analysed in SigmaPlot 13.0 using one-way ANOVAs, where p < 0.05 was taken as the significance threshold and expressed as mean ± SEM. […] Confocal images were captured and analysed with Zen 2012 SP2 (Zeiss) software. […] Single channel recordings were analysed in QuB software. […]

Another assay has as its target αβ (1:1) GluClRs (Haemonchus contortus, UniProt O46124+P91730). In words: Single channel recording, outside-out patches, αβ (1:1) GluClRs. It is filed as cell-based, H. contortus. The note with it: 2 μM glutamate plus 5 nM IVM. The text has this: To explore whether a similar mechanism applies to β-containing GluClRs, we recorded single receptor currents in excised patches from cells transfected with either the α and β subunits (1:1) or the β subunit alone. […] By contrast, patches from cells transfected with the β subunit alone invariably opened to an amplitude of 0.4 pA (Fig 6C). Amplitude histograms confirmed two amplitude levels for αβ GluClRs and a single amplitude for the β GluClRs (Fig 6D). […] We infer that the αβ GluClRs that open to 0.7 pA likely contain a greater proportion of β subunits. This is consistent with β GluClRs having the smallest amplitude and α GluClRs having the greatest amplitude (1.8 pA) under similar recording conditions. The calculated conductance values for the corresponding amplitudes for αβ GluClRs was 15.2 pS and 8.9 pS and for the β GluClRs was 5.1 pS.
Single-channel currents were recorded from outside-out excised patches at a clamped potential of −70 mV. The single channel conductance was calculated by dividing the mean current by the net driving force at a clamped potential of ‐70 mV, after accounting for reversal and liquid junction potentials. Excised patches were continuously perfused via a gravity-fed double-barrelled glass tube, which contained extracellular bath solution containing (in mM), 140 NaCl, 5 KCl, 1 MgCl2, 2 CaCl2, 10 HEPES, and 10 D-glucose and titrated to pH 7.4. Glutamate and IVM were dissolved in this extracellular solution. Recording electrodes were pulled from borosilicate glass (G150F-3; Warner Instruments), coated with a silicone elastomer (Sylgard-184; Dow Corning) and heat-polished to a final tip resistance of 4–15 MΩ when filled with an intracellular solution containing (in mM) 145 CsCl, 2 MgCl2, 2 CaCl2, 10 HEPES, and 5 EGTA, pH 7.4. […] A 10 mM stock of IVM (Sigma-Aldrich) was dissolved in 100% DMSO and kept frozen at ‐20°C. Fresh working stocks of IVM at 5 nM were prepared by dissolving the appropriate quantity directly in extracellular solution. 100% DMSO when dissolved in extracellular solution alone at the same concentration as was present in working solutions containing 5 nM IVM had no effect on patches excised from cells transfected with GluClRs or from untransfected cells.
Currents were recorded using an Axopatch 200B amplifier (Molecular Devices), filtered at 5 kHz and digitized at 20 kHz using Clampex (pClamp 10 suite, Molecular Devices) via a Digidata 1440A digitizer.
Group data were analysed in SigmaPlot 13.0 using one-way ANOVAs, where p < 0.05 was taken as the significance threshold and expressed as mean ± SEM. Tests for normally distributed data are built into the SigmaPlot software. Confocal images were captured and analysed with Zen 2012 SP2 (Zeiss) software. Oocyte concentration-response data were fit to a Hill equation to obtain an EC50 and Hill co-efficient for each oocyte recording. These parameters were then averaged across multiple oocyte experiments of the same type. Single channel recordings were analysed in QuB software. […] Patches yielded between 30–250 individual active periods. […] The selected critical times eliminated periods of receptor desensitisation while retaining singe receptor active periods. Mean active period duration and intra-activation open probability was estimated from each patch. Group means were obtained by averaging across multiple patches for each recording condition.

Assay [1] deals with homomeric α (avr-14b) GluClRs. The conditions noted are these: cited from earlier work.

Chain of αβ (1:1) GluClRs (P91730 19-432): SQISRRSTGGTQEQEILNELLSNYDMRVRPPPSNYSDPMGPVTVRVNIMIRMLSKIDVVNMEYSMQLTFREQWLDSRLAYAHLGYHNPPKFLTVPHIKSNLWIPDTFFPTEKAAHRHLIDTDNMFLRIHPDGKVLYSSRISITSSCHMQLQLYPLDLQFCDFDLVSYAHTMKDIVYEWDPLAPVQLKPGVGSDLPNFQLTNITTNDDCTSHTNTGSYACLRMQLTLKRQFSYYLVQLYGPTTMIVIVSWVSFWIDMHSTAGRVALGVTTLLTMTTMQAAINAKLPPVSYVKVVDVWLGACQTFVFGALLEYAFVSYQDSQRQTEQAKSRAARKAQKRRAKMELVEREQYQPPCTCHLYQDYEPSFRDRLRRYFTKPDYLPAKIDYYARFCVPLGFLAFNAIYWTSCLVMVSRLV
Chain of αβ (1:1) GluClRs (O46124 entry or part of it): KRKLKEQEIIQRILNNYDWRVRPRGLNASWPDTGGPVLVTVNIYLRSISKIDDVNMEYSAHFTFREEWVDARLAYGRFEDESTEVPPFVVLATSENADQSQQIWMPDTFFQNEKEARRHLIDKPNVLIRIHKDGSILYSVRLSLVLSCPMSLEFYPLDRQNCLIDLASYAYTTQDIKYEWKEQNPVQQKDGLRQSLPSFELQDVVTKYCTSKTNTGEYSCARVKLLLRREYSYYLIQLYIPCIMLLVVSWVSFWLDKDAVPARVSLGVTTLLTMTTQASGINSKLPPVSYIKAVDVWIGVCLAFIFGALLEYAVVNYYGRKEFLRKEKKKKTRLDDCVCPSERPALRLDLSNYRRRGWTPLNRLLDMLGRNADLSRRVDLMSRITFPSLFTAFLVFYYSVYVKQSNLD
Chain of αβ (1:50) GluClRs (O46124 entry or part of it): as above
Chain of αβ (1:50) GluClRs (P91730 19-432): as the sequence (P91730 19-432) above
Chain of β GluClRs (P91730 19-432): as above

On to `CC[C@H](C)[C@H]1O[C@]2(CC[C@@H]1C)C[C@@H]1C[C@@H](C/C=C(\C)[C@@H](O[C@H]3C[C@H](OC)[C@@H](O[C@H]4C[C@H](OC)[C@@H](O)[C@H](C)O4)[C@H](C)O3)[C@@H](C)/C=C/C=C3\CO[C@@H]4[C@H](O)C(C)=C[C@@H](C(=O)O1)[C@]34O)O2` [IVM, Ivermectin], for which the “differential efficacy between α and αβ (1:50) GluClRs” value on αβ (1:50) GluClRs (30 nM, α versus αβ (1:50)) was “maintained”. Also, the concentration giving a half-maximal response (EC50) on αβ (1:50) GluClRs (EC50, oocytes, cDNA injection ratio α:β 1:50, −40 mV) was determined as 141 ± 11 nM. In addition, at αβ (1:50) GluClRs (oocytes, α:β 1:50, −40 mV), the Hill co-efficient is given as 1.6 ± 0.1. In addition, the Emax on αβ (1:50) GluClRs (read-out: maximal response, % of saturating glutamate response) turned out to be 33%. Moreover, the EC50 on β GluClRs is over 10000 nM. On αβ (1:1) GluClRs, the “increase in mean active period duration compared to 2 μM glutamate alone” value was “over 20 fold”, the “increase in mean active period duration compared to 3 mM glutamate” value is listed as 6 fold and the “intra-activation open probability (PO)” value is listed as 0.83 ± 0.02. On αβ (1:1) GluClRs (pooled), the “mean active period duration” value stood at 876 ± 178 ms. The “time over which single receptor active periods increase in duration after exposure” value in assay [1] is 1 to 2 min.
